# Assay results: publication PMC7226027, “Phosphonic Acid Analogs of Fluorophenylalanines as Inhibitors of Human and Porcine Aminopeptidases N: Validation of the Importance of the Substitution of the Aromatic Ring” (Biomolecules, 2020)
# Read-outs that look alike come from different tables or passages of the source.
# Legend:
# Type in all cases: biochemical
# [1] = target: T1, hAPN (recombinant human alanine aminopeptidase, EC 3.4.11.2) (Homo sapiens, UniProt P15144); assay: fluorogenic assay, Ala-AMC hydrolysis; Ki by Lineweaver-Burk, Dixon, Cheng-Prusoff
# T1 construct: gene ANPEP; commercial recombinant enzyme (R&D Systems), lyophilized powder
# T1 sequence (P15144 33-967 limits assumed): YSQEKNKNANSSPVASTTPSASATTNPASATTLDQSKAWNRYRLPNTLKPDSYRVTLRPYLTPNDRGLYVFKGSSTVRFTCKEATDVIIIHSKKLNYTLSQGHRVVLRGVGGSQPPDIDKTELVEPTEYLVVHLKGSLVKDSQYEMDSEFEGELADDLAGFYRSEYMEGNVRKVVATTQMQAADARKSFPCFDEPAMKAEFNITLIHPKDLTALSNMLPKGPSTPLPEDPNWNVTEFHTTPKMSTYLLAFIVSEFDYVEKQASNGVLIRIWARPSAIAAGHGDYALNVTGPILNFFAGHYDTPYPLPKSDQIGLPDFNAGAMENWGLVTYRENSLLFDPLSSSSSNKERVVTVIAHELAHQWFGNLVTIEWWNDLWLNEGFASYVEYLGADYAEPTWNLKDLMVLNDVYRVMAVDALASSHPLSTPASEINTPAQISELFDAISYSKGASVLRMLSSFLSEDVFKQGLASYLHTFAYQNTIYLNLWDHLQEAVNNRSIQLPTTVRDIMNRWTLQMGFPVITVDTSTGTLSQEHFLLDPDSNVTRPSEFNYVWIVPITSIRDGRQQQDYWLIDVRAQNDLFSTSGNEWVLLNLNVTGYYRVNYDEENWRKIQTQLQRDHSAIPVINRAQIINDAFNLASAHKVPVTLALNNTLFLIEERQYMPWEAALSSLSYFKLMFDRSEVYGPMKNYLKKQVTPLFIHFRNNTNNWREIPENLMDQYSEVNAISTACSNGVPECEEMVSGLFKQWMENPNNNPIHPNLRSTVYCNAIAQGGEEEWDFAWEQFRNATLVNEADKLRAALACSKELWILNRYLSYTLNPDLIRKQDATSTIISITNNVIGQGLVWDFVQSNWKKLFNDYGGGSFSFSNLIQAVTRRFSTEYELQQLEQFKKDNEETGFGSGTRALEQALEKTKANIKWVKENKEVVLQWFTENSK
# Description: fluorogenic assay, Ala-AMC hydrolysis; Ki by Lineweaver-Burk, Dixon, Cheng-Prusoff on hAPN (recombinant human alanine aminopeptidase, EC 3.4.11.2)
# [2] = target: T2, pAPN (porcine kidney alanine aminopeptidase, EC 3.4.11.2) (Sus scrofa, UniProt P15145); assay: as above; details: for pAPN Ki (μM): unreliable (value above highest stated concentration, 1 mM)
# T2 construct: gene ANPEP; commercial enzyme from porcine kidney (Sigma Aldrich), native purification, lyophilized powder
# T2 sequence (P15145 2-963): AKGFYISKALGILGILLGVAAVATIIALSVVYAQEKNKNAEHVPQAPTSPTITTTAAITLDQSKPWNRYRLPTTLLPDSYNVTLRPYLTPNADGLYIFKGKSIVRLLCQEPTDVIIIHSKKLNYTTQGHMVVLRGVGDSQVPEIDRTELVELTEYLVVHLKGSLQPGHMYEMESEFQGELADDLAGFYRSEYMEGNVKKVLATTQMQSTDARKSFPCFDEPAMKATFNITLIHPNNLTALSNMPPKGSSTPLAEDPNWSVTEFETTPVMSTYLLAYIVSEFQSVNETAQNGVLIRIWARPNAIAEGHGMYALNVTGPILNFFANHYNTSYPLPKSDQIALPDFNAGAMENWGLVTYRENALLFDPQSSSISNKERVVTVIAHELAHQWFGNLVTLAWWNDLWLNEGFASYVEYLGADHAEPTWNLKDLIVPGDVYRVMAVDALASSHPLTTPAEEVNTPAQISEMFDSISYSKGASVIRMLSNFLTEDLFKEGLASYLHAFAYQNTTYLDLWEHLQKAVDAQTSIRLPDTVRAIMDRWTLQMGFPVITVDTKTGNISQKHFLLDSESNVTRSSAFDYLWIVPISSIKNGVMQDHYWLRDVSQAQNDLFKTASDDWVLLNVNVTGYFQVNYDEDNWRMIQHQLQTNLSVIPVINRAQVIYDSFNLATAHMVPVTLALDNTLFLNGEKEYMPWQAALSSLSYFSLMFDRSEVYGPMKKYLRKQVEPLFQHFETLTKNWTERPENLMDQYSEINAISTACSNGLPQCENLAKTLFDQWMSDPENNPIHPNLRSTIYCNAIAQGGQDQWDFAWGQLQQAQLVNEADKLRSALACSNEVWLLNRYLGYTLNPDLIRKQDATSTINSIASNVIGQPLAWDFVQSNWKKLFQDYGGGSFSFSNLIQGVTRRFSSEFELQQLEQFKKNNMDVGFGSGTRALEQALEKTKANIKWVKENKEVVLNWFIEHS
# Description: fluorogenic assay, Ala-AMC hydrolysis; Ki by Lineweaver-Burk, Dixon, Cheng-Prusoff on pAPN (porcine kidney alanine aminopeptidase, EC 3.4.11.2)
# [3] = target: T1, hAPN (recombinant human alanine aminopeptidase, EC 3.4.11.2); assay: fluorogenic assay (AMC release); details: 50 mM Tris-HCl pH 7.00
# [4] = target: T2, pAPN (porcine kidney alanine aminopeptidase, EC 3.4.11.2); assay: fluorogenic assay (AMC release); details: 50 mM Tris-HCl pH 7.20
# [5] = read-out: Inactive (no inhibition up to 1 mM)
# [6] = racemate (hydrochloride), 80 µM Ala-AMC, 50 mM Tris-HCl pH 7.20, 37 °C
# [7] = racemate (hydrochloride), 80 µM Ala-AMC, 50 mM Tris-HCl pH 7.20, 37 °C, 0.66 nM enzyme, 30 min enzyme preincubation in buffer
SMILES,Ki [2],Ki ([1]; read-out: hAPN Ki),other results
"NC(CC(F)(F)F)P(=O)(O)O (racemic) [compound 8, (1-Amino-3,3,3-trifluoropropyl)phosphonic acid]",755 ± 230 µM,,Ki [1]: 84.7 ± 15.8 µM
"NC(Cc1cccc(F)c1)P(=O)(O)O (racemic) [1c, 1-Amino-2-(3-fluorophenyl)ethylphosphonic Acid]",26.4 ± 2 µM,,Ki [1]: 3.39 ± 0.71 µM
"NC(Cc1ccc(C(F)(F)F)cc1)P(=O)(O)O (racemic) [1x, 1-Amino-2-(4-trifluoromethylphenyl)ethylphosphonic Acid]",257 ± 27 µM,24.9 ± 3 µM,
"NC(Cc1ccc(F)c(C(F)(F)F)c1)P(=O)(O)O (racemic) [1z, 1-Amino-2-(4-fluoro-3-trifluoromethylphenyl)ethylphosphonic Acid]",67.7 ± 5.6 µM,3.55 ± 0.43 µM,
"NC(Cc1ccc(F)cc1Cl)P(=O)(O)O (racemic) [1u, 1-Amino-2-(2-chloro-4-fluorophenyl)ethylphosphonic Acid]",106 ± 12 µM,29.1 ± 10.3 µM,
"NC(Cc1ccc(F)c(F)c1)P(=O)(O)O (racemic) [1h, 1-Amino-2-(3,4-difluorophenyl)ethylphosphonic Acid]",15.7 ± 2.5 µM,1.71 ± 0.52 µM,
"NC(Cc1cc(F)c(F)cc1F)P(=O)(O)O (racemic) [1j, 1-Amino-2-(2,4,5-trifluorophenyl)ethylphosphonic Acid]",78.5 ± 3.9 µM,15 ± 2.2 µM,
"NC(Cc1ccc(Cl)cc1F)P(=O)(O)O (racemic) [1o, 1-Amino-2-(4-chloro-2-fluorophenyl)ethylphosphonic Acid]",160 ± 11 µM,17.8 ± 2.09 µM,
"NC(Cc1ccc(F)c(Cl)c1)P(=O)(O)O (racemic) [1t, 1-Amino-2-(3-chloro-4-fluorophenyl)ethylphosphonic Acid]",6.93 ± 0.78 µM,0.542 ± 0.152 µM,
"NC(Cc1ccccc1F)P(=O)(O)O (racemic) [1b, 1-Amino-2-(2-fluorophenyl)ethylphosphonic Acid]",256 ± 19 µM,,Ki [1]: 18.1 ± 3.7 µM
"NC(Cc1c(F)cccc1F)P(=O)(O)O (racemic) [1g, 1-Amino-2-(2,6-difluorophenyl)ethylphosphonic Acid]",725 ± 121 µM,327 ± 98 µM,
"NC(Cc1cccc(C(F)(F)F)c1)P(=O)(O)O (racemic) [1w, 1-Amino-2-(3-trifluoromethylphenyl)ethylphosphonic Acid]",66 ± 7.3 µM,2.53 ± 0.4 µM,
"NC(Cc1cc(F)ccc1F)P(=O)(O)O (racemic) [1f, 1-Amino-2-(2,5-difluorophenyl)ethylphosphonic Acid]",86.3 ± 8.2 µM,25.9 ± 5 µM,
"NC(Cc1ccccc1C(F)(F)F)P(=O)(O)O (racemic) [1v, 1-Amino-2-(2-trifluoromethylphenyl)ethylphosphonic Acid]",,,"Ki [1, 5]: > 1000 µM; pAPN Ki (μM) [2, 6]: 2335 ± 617 µM"
"NC(Cc1ccc(Cl)c(F)c1)P(=O)(O)O (racemic) [1s, 1-Amino-2-(4-chloro-3-fluorophenyl)ethylphosphonic Acid]",14.8 ± 0.9 µM,1.01 ± 0.16 µM,
"Cc1cc(=O)oc2cc(NC(=O)[C@H](C)N)ccc12 [Ala-AMC, L-alanine-4-methylcoumaryl-7-amide]",,,Km [3]: 73 µM; Km [4]: 90 µM
"NC(Cc1cc(Cl)ccc1F)P(=O)(O)O (racemic) [1p, 1-Amino-2-(5-chloro-2-fluorophenyl)ethylphosphonic Acid]",47.2 ± 1.4 µM,4.3 ± 0.44 µM,
"NC(Cc1c(F)cc(F)cc1F)P(=O)(O)O (racemic) [1k, 1-Amino-2-(2,4,6-trifluorophenyl)ethylphosphonic Acid]",969 ± 158 µM,225 ± 47 µM,
"NC(Cc1cc(F)cc(F)c1)P(=O)(O)O (racemic) [1i, 1-Amino-2-(3,5-difluorophenyl)ethylphosphonic Acid]",8.09 ± 1.1 µM,0.529 ± 0.088 µM,
"NC(Cc1cc(F)c(F)c(F)c1)P(=O)(O)O (racemic) [1l, 1-Amino-2-(3,4,5-trifluorophenyl)ethylphosphonic Acid]",7.1 ± 0.93 µM,0.793 ± 0.138 µM,
"NC(Cc1ccccc1)P(=O)(O)O (stereo not drawn) [1a, 1-Amino-2-phenylethylphosphonic Acid]",,,"Ki ([1]; racemate (hydrochloride), 50 µM Ala-AMC, 50 mM Tris-HCl pH 7.00, 37 °C, 0.66 nM enzyme, 30 min enzyme preincubation in buffer, read-out: hAPN Ki): 15.5 ± 1.7 µM; Ki [2, 7]: 73.3 ± 7.6 µM"
"NC(Cc1cc(F)ccc1C(F)(F)F)P(=O)(O)O (racemic) [1y, 1-Amino-2-(5-fluoro-2-trifluoromethylphenyl)ethylphosphonic Acid]",,,"Ki [1, 5]: > 1000 µM; Inactive (no inhibition up to 1 mM) [2, 7]: > 1 mM"
"NC(Cc1c(F)cccc1Cl)P(=O)(O)O (racemic) [1r, 1-Amino-2-(2-chloro-6-fluorophenyl)ethylphosphonic Acid]",,360 ± 125 µM,"pAPN Ki (μM) [2, 6]: 2557 ± 729 µM"
"NC(Cc1ccc(F)cc1)P(=O)(O)O (racemic) [1d, 1-Amino-2-(4-fluorophenyl)ethylphosphonic Acid]",41.4 ± 2.5 µM,,Ki [1]: 4.86 ± 1.18 µM
"NC(Cc1ccc(F)cc1F)P(=O)(O)O (racemic) [1e, 1-Amino-2-(2,4-difluorophenyl)ethylphosphonic Acid]",95.6 ± 9.6 µM,13.5 ± 2.7 µM,
"NC(Cc1cccc(Cl)c1F)P(=O)(O)O (racemic) [1n, 1-Amino-2-(3-chloro-2-fluorophenyl)ethylphosphonic Acid]",85.1 ± 9.1 µM,18.5 ± 7.1 µM,
"NC(Cc1c(F)c(F)c(F)c(F)c1F)P(=O)(O)O (racemic) [1m, 1-Amino-2-(2,3,4,5,6-pentafluorophenyl)ethylphosphonic Acid]",808 ± 132 µM,139 ± 71 µM,
